Assay results from ChEMBL document CHEMBL1129673, “Antitumor activity of the R- and S-enantiomers of RS-2-[[hydroxy[[2-[ (octadecyloxy)methyl]tetrahydrofuran-2-yl]methoxy]-phosphinyl]oxy]-N, N,N,-trimethylethylaminium hydroxide inner salt” (1996).

Tests used:
[1] = Antitumor activity against Abelson-8.1 cells at concentration 1 ug/mL and at 72 hr using Activated Macrophage Cytotoxicity assay.; assay type: functional, Mus musculus
[2] = Antitumor activity against Abelson-8.1 cells at concentration 5 ug/mL and at 72 hr using direct cytotoxicity assay.; assay type: functional, Mus musculus
[3] = system: Mus musculus; assay: Antitumor activity against mouse macrophages after day 14 at dose 0.25 mg/kg by peroral administration; assay type: functional; conditions: route oral
[4] = Antitumor activity against Abelson-8.1 cells at concentration 3 ug/mL and at 72 hr using direct cytotoxicity assay.; assay type: functional, Mus musculus
[5] = Antitumor activity against Abelson-8.1 cells at concentration 1 ug/mL and at 72 hr using direct cytotoxicity assay.; assay type: functional, Mus musculus
[6] = system: Mus musculus; assay: Antitumor activity against mouse macrophages after day 28 at dose 0.25 mg/kg by peroral administration; assay type: functional; conditions: route oral
[7] = system: P815; assay: Antitumor activity against P815 cells at concentration 1 ug/mL and at 72 hr using direct cytotoxicity assay.; assay type: functional, Mus musculus
[8] = system: L1210; assay: Antitumor activity against L1210 cells at concentration 5 ug/mL and at 72 hr using direct cytotoxicity assay.; assay type: functional, Mus musculus
[9] = system: YAC-1; assay: Antitumor activity against YAC-1 tumor cells at concentration 3 ug/mL and at 72 hr using direct cytotoxicity assay.; assay type: functional, Mus musculus
[10] = system: YAC-1; assay: Antitumor activity against YAC-1 tumor cells at concentration 3 ug/mL and at 72 hr using Activated Macrophage Cytotoxicity assay.; assay type: functional, Mus musculus
[11] = system: L1210; assay: Antitumor activity against L1210 cells at concentration 1 ug/mL and at 72 hr using Activated Macrophage Cytotoxicity assay.; assay type: functional, Mus musculus
[12] = system: Mus musculus; assay: Mouse survived after 28 days at 0.25 mg/kg; 2/10; assay type: functional
[13] = Antitumor activity against Abelson-8.1 cells at concentration 5 ug/mL and at 72 hr using Activated Macrophage Cytotoxicity assay.; assay type: functional, Mus musculus
[14] = system: L1210; assay: Antitumor activity against L1210 cells at concentration 1 ug/mL and at 72 hr using direct cytotoxicity assay.; assay type: functional, Mus musculus
[15] = system: L1210; assay: Antitumor activity against L1210 cells at concentration 3 ug/mL and at 72 hr using direct cytotoxicity assay.; assay type: functional, Mus musculus
[16] = system: Mus musculus; assay: Antitumor activity against mouse macrophages after day 7 at dose 0.25 mg/kg by peroral administration; assay type: functional; conditions: route oral
[17] = system: P815; assay: Antitumor activity against P815 cells at concentration 5 ug/mL and at 72 hr using Activated Macrophage Cytotoxicity assay.; assay type: functional, Mus musculus
[18] = system: P815; assay: Antitumor activity against P815 cells at concentration 1 ug/mL and at 72 hr using Activated Macrophage Cytotoxicity assay.; assay type: functional, Mus musculus
[19] = system: P815; assay: Antitumor activity against P815 cells at concentration 5 ug/mL and at 72 hr using direct cytotoxicity assay.; assay type: functional, Mus musculus
[20] = system: P815; assay: Antitumor activity against P815 cells at concentration 3 ug/mL and at 72 hr using Activated Macrophage Cytotoxicity assay.; assay type: functional, Mus musculus
[21] = system: YAC-1; assay: Antitumor activity against YAC-1 tumor cells at concentration 5 ug/mL and at 72 hr using direct cytotoxicity assay.; assay type: functional, Mus musculus
[22] = system: P815; assay: Antitumor activity against P815 cells at concentration 3 ug/mL and at 72 hr using direct cytotoxicity assay.; assay type: functional, Mus musculus
[23] = system: Mus musculus; assay: Antitumor activity against mouse macrophages after day 21 at dose 0.25 mg/kg by peroral administration; assay type: functional; conditions: route oral
[24] = system: L1210; assay: Antitumor activity against L1210 cells at concentration 3 ug/mL and at 72 hr using Activated Macrophage Cytotoxicity assay.; assay type: functional, Mus musculus
[25] = system: YAC-1; assay: Antitumor activity against YAC-1 tumor cells at concentration 1 ug/mL and at 72 hr using direct cytotoxicity assay.; assay type: functional, Mus musculus
[26] = system: L1210; assay: Antitumor activity against L1210 cells at concentration 5 ug/mL and at 72 hr using Activated Macrophage Cytotoxicity assay.; assay type: functional, Mus musculus
[27] = system: Mus musculus; assay: Antitumor activity against mouse macrophages after day 28 at dose 2.50 mg/kg by peroral administration; assay type: functional; conditions: dose 2.5 mg/kg; route oral
[28] = system: Mus musculus; assay: Mouse survived after 28 days at 2.5 mg/kg; 3/10; assay type: functional
[29] = system: Mus musculus; assay: Antitumor activity against mouse macrophages after day 14 at dose 2.50 mg/kg by peroral administration; assay type: functional; conditions: dose 2.5 mg/kg; route oral
[30] = system: Mus musculus; assay: Antitumor activity against mouse macrophages after day 21 at dose 2.50 mg/kg by peroral administration; assay type: functional; conditions: dose 2.5 mg/kg; route oral
[31] = system: Mus musculus; assay: Antitumor activity against mouse macrophages after day 7 at dose 2.50 mg/kg by peroral administration; assay type: functional; conditions: dose 2.5 mg/kg; route oral
[32] = system: YAC-1; assay: Antitumor activity against YAC-1 tumor cells at concentration 1 ug/mL and at 72 hr using Activated Macrophage Cytotoxicity assay.; assay type: functional, Mus musculus
[33] = system: YAC-1; assay: Antitumor activity against YAC-1 tumor cells at concentration 5 ug/mL and at 72 hr using Activated Macrophage Cytotoxicity assay.; assay type: functional, Mus musculus
[34] = system: L1210; assay: Antitumor activity against L1210 cells at concentration 3 ug/mL using Activated Macrophage Cytotoxicity assay.; assay type: functional, Mus musculus
[35] = system: Mus musculus; assay: Mouse survived after 28 days at 0.25 mg/kg; 8/10; assay type: functional
[36] = Antitumor activity against Abelson-8.1 cells at concentration 3 ug/mL and at 72 hr using Activated Macrophage Cytotoxicity assay.; assay type: functional, Mus musculus
[37] = system: Mus musculus; assay: Mouse survived after 28 days at 2.5 mg/kg; 8/10; assay type: functional
[38] = system: Mus musculus; assay: Mouse survived after 28 days at 0.25 mg/kg; 3/10; assay type: functional
[39] = system: Mus musculus; assay: Mouse survived after 28 days at 2.5 mg/kg; 6/10; assay type: functional
[40] = system: L1210; assay: Antitumor activity against L1210 cells at concentration 5 ug/mL and at 72 hr and at 72 hr using Activated Macrophage Cytotoxicity assay.; assay type: functional, Mus musculus

| SMILES | Viable cells [1] [%] | Viable cells [2] [%] | Control [3] [%] | Viable cells [4] [%] | Viable cells [5] [%] | Control [6] [%] | Viable cells [7] [%] | Viable cells [8] [%] | Viable cells [9] [%] | Viable cells [10] [%] | Viable cells [11] [%] | Viable cells [13] [%] | Viable cells [14] [%] | Viable cells [15] [%] | Control [16] [%] | Viable cells [17] [%] | Viable cells [18] [%] | Viable cells [19] [%] | Viable cells [20] [%] | Viable cells [21] [%] | other results |
| --- | --- | --- | --- | --- | --- | --- | --- | --- | --- | --- | --- | --- | --- | --- | --- | --- | --- | --- | --- | --- | --- |
| CCCCCCCCCCCCCCCCCCOCC1(COP(=O)([O-])OCC[N+](C)(C)C)CCCO1 (racemic; 8) | 0.5 | 4.6 | 52 | 6.8 | 71 | 37 | 68 | 13 | 14 | 1.6 | 5.3 | 0.2 | 84 | 24 | 90 | 1.3 | 3.1 | 2.8 | 1.8 | 4.5 | Survivors [12]: 2; Viable cells [22]: 20%; Control [23]: 21%; Viable cells [24]: 1.4%; Viable cells [25]: 92%; Viable cells [26]: 1.1% |
| CCCCCCCCCCCCCCCCCCOC[C@@]1(COP(=O)([O-])OCC[N+](C)(C)C)CCCO1 |  |  |  |  |  |  |  |  |  |  |  |  |  |  |  |  |  |  |  |  | Control [27]: 32%; Survivors [28]: 3; Control [29]: 53%; Control [30]: 21%; Control [31]: 85% |
| CCCCCCCCCCCCCCCCCCOCC1(COP(=O)([O-])OCC[N+](C)(C)C)CCCO1 (racemic; 9) | 0.8 | 1.8 | 19 | 2.1 | 8.6 | 11 | 16 | 3.2 | 22 | 2.3 | 3.4 | 0.4 | 55 | 7.7 | 66 | 0.3 | 2.8 | 2.6 | 1.1 | 9 | Viable cells [32]: 11%; Viable cells [33]: 0.9%; Viable cells [34]: 0.6%; Survivors [35]: 8; Viable cells [22]: 7%; Control [23]: 6%; Viable cells [25]: 60%; Viable cells [26]: 0.2%; Viable cells [36]: 0.3% |
| CCCCCCCCCCCCCCCCCCOC[C@]1(COP(=O)([O-])OCC[N+](C)(C)C)CCCO1 |  |  |  |  |  |  |  |  |  |  |  |  |  |  |  |  |  |  |  |  | Control [27]: 13%; Control [29]: 28%; Control [30]: 8%; Control [31]: 70%; Survivors [37]: 8 |
| CCCCCCCCCCCCCCCCCCOCC1(COP(=O)([O-])OCC[N+](C)(C)C)CCCO1 (racemic; 5) | 0.4 | 2 | 47 | 2.6 | 32 | 32 | 60 | 8.6 | 26 | 2.5 | 9.4 | 0.1 | 100 | 20 | 82 | 0.6 | 3.4 | 5.3 | 0.7 | 8.9 | Control [27]: 21%; Viable cells [32]: 16%; Survivors [38]: 3; Viable cells [33]: 1.2%; Survivors [39]: 6; Control [29]: 38%; Viable cells [34]: 1.6%; Viable cells [22]: 13%; Control [23]: 20%; Control [30]: 14%; Viable cells [25]: 81%; Viable cells [40]: 0.9%; Control [31]: 76%; Viable cells [36]: 0.2% |
